Format in all cases: cell-based
For one assay, the target named is T1, KRAS(G12D) (Homo sapiens, UniProt P01116, G12D).
T1 construct: introduced immediately downstream of the initiating Methionine codon of the endogenous KRAS locus; host or cells: GP5d-HiBit-KRAS(G12D), a CRISPR knock-in at the endogenous locus
The experiment in a line: HiBit degradation assay in GP5d-HiBit-KRAS(G12D) cells (18 h; DC50, Dmax). As for the experimental part: A HiBit protein detection tag (amino acid sequence […], Seq ID No 1) was introduced immediately downstream of the initiating Methionine codon of the endogenous KRAS locus (Ensembl gene ID ENSG00000133703.7) of GP5d cells (ECACC Cat. No. 95090715) by CRISPR-based genome engineering using a KRAS(G12D) mutant donor construct encoding the HiBit tag. […] Correct modification of the KRAS locus was assessed by PCR-based genotyping and Sanger sequencing of the isolated PCR products. The resulting cell line is referred to as GP5d-HiBit-KRAS(G12D).
To assess PROTAC-mediated degradation of KRAS(G12D), GP5d-HiBit-KRAS(G12D) cells were seeded at 25000 cells per well in 100 μL Dulbecco's Modified Eagle medium (Sigma cat. no. D6429) supplemented with 10% fetal calf serum into white bottom opaque 96 well plates (Perkin Elmer cat no. 5680). Plates were incubated at 37° C., 5% CO2 in a humidified incubator over night to allow the cells to adhere. […] Plates were further incubated at 37° C. for 18 hours. Following incubation, 100 μL per well Promega Nano-Glo HiBit lytic detection reagent mix (Promega Nano-Glo HiBit Lytic Detection System #N3050), prepared according to the manufacturer's instructions in the kit, were added. To allow for adequate cell lysis, plates were incubated on an orbital shaker for 15 min and further incubated 30 min at room temperature. Upon completion of cell lysis, luminescence was measured using an Envision plate reader using the Ultrasensitive Luminescence Protocol for 96 well plates. Luminescence levels were normalized by the values obtained with DMSO-treated samples and plotted as percent of DMSO control. DC50 values were computed using a four parametric logistic model. Dmax values represent the maximal extent of degradation observed and is stated as percent of control (% Ctrl.) treatments. DC50 and Dmax are reported in Table 64 for representative compounds of the invention.

A further assay has as its system NCI-H358 cells. The experiment in a line: NCI-H358 CTG proliferation assay (120 h) (NSCLC, G12C). The settings on record: Homo sapiens, assay 2, read-out: H358 (assay 2) IC50. As for the experimental part: NCI-H358 CTG Proliferation Assay (120 h) (NSCLC, G12C)
NCI-H358 cells (ATCC No. CRL-5807) are dispensed into white bottom opaque 96 well plates (Perkin Elmer cat no. 5680) at a density of 2000 cells per well in 100 μL RPMI-1640 ATCC-Formulation (Gibco #A10491)+10% FCS (fetal calf serum) (assay 1) or into black 384-well plates, flat and clear bottom (Greiner, PNr. 781091) at a density of 200 cells per well in 60 μl RPMI-1640 ATCC-Formulation (Gibco #A10491)+10% FCS (fetal calf serum) (assay 2). […] Compounds (10 mM stock in DMSO) are added at logarithmic dose series using the HP Digital Dispenser D300 (Tecan) (assay 1) or the ECHO acoustic liquid handler system (Beckman Coulter) (assay 2), normalizing for added DMSO and including DMSO controls. For the TO time point measurement, untreated cells are analyzed at the time of compound addition. Plates are incubated for 120 h, and cell viability is measured using CellTiter-Glo luminescent cell viability reagent (Promega product code G7570). Viability (stated as percent of control) is defined as relative luminescence units RLU of each well divided by the RLU of cells in DMSO controls. IC50 values are determined from viability measurements by non-linear regression using a four parameter model.

Another assay relates to AsPC-1 cells. The experiment in a line: AsPC-1 CTG proliferation assay (120 h) (pancreatic cancer, G12D). Particulars: Homo sapiens, ASPC1, AsPC-1 proliferation. As for the experimental part:
AsPC-1 CTG Proliferation Assay (120 h) (Pancreatic Cancer, G12D)
The CTG assay is designed to measure quantitatively the proliferation of AsPC-1 cells (ATCC […]), using the CellTiter Glow Assay Kit (Promega G7571). Cells are grown in RPMI medium (ATCC) supplemented with Fetal Calf Serum (Life Technologies, Gibco BRL, Cat. No. 10270-106). On “day 0” 2000 AsPC-1 cells are seeded in 60 μL RPMI ATCC+10% FCS+ Penstrep in a 384-well plate, flat and clear bottom (Greiner, PNr. 781091). Cells are then incubated in the plates at 37° C. in a CO2 incubator overnight. On day 1, compounds (10 mM stock in DMSO) are added with the ECHO acoustic liquid handler system (Beckman Coulter), including DMSO controls. Plates are incubated for 120 h, and cell viability is measured using CellTiter-Glo luminescent cell viability reagent (Promega product code G7570). Viability (stated as percent of control) is defined as relative luminescence units RLU of each well divided by the RLU of cells in DMSO controls. IC50 values are determined from viability measurements by non-linear regression using a four-parameter model.

In a further assay the test system is SAS cells. The experiment in a line: SAS CTG proliferation assay (120 h) (HNSCC, wt amplified). As for the experimental part:
SAS CTG Proliferation Assay (120 h) (HNSCC, Wt Amplified)
(§1) SAS cells (JCRB0260) are dispensed into 384-well plates, flat and clear bottom (Greiner, PNr. 781091) at a density of 300 cells per well in 60 μL DMEM:F12 (Gibco 31330-038)+10% Fetal Calf Serum (HyClone, PNr.: SH30084.03) and incubated at 37° C. in a CO2 incubator overnight. The next day, compounds (10 mM stock in DMSO) are added with the ECHO acoustic liquid handler system (Beckman Coulter), including DMSO controls. Plates are incubated for 120 h, and cell viability is measured using CellTiter-Glo luminescent cell viability reagent (Promega product code G7570). Viability (stated as percent of control) is defined as relative luminescence units RLU of each well divided by the RLU of cells in DMSO controls. IC50 values are determined from viability measurements by non-linear regression using a four-parameter model.

The next assay concerns SK—CO-1 cells. The experiment in a line: SK-CO-1 CTG proliferation assay (120 h) (CRC, G12V). The settings on record: Homo sapiens, SK-CO-1 proliferation. As for the experimental part:
SK—CO-1 CTG Proliferation Assay (120 h) (CRC, G12V)
as §1, with “SK—CO-1 cells (ATCC” for “SAS cells (JCRB0260)”, “SK—CO-1 cells (ATCC HTB-39) are dispensed” for “SAS cells (JCRB0260) are dispensed”, “density of 500 cells per” for “density of 300 cells per”, “60 μL EMEM (Sigma M5650)+10% Fetal Calf” for “60 μL DMEM:F12 (Gibco 31330-038)+10% Fetal Calf”

In a further assay the test system is LOVO cells. The assay is described as follows: LOVO CTG proliferation assay (120 h) (CRC, G13D). The settings on record: Homo sapiens. As for the experimental part:
LOVO CTG Proliferation Assay (120 h) (CRC, G13D)
as §1, with “LOVO cells (ATCC” for “SAS cells (JCRB0260)”, “LOVO cells (ATCC CCL-229) are dispensed” for “SAS cells (JCRB0260) are dispensed”, “density of 1000 cells per” for “density of 300 cells per”, “60 μL DMEM (Sigma D6429)+10% Fetal Calf” for “60 μL DMEM:F12 (Gibco 31330-038)+10% Fetal Calf”

T1 sequence (P01116 1-188 isoform P01116-2 G12D): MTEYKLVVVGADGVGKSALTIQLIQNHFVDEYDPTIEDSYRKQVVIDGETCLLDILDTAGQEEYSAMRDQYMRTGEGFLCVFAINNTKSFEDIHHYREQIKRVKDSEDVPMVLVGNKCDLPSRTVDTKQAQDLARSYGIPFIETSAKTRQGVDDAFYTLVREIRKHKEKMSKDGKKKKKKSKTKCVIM

On KRAS(G12D), `Cc1ncsc1-c1ccc(CNC(=O)[C@@H]2C[C@@H](O)CN2C(=O)C(c2cc(OCCCCN3CCCN(c4nccc(-c5cc([C@@]6(C)CCCc7sc(N)c(C#N)c76)no5)n4)[C@@H](C)C3)no2)C(C)C)cc1` (some centres unmarked) [I-6] registered a half-maximal degradation concentration (DC50) of 8.9 nM. The “Dmax 18 h” value at KRAS(G12D) was 92 % Ctrl. Also, the half-inhibitory concentration (IC50) in the assay on NCI-H358 cells worked out at 253 nM; in the assay on AsPC-1 cells, 645 nM; in the assay with SAS cells, 17000 nM; in the assay with SK—CO-1 cells, 1210 nM.
In the case of `CC(C)C(C(=O)N1C[C@H](O)C[C@H]1C(=O)NCc1ccc(-c2scnc2CO)cc1)c1cc(OCCCCN2CCCN(c3nccc(-c4noc([C@@]5(C)CCCc6sc(N)c(C#N)c65)n4)n3)[C@@H](C)C2)no1` (some centres unmarked) [I-9], on KRAS(G12D), the DC50 is 12.9 nM. The “Dmax 18 h” value at KRAS(G12D) was 92 % Ctrl. Besides, the IC50 in the assay with NCI-H358 cells came out at 288 nM; with AsPC-1 cells, 470 nM; with SAS cells, 16400 nM; in the assay on SK—CO-1 cells, 216 nM; with LOVO cells, 59.4 nM.
On to `CC(C)C(C(=O)N1C[C@H](O)C[C@H]1C(=O)NCc1ccc(C#N)c(Cl)c1)c1cc(OCCCCN2CCCN(c3nccc(-c4noc([C@@]5(C)CCCc6sc(N)c(C#N)c65)n4)n3)[C@@H](C)C2)no1` (some centres unmarked) [I-18], for which, at KRAS(G12D), half-maximal degradation (DC50) was put at 4.1 nM. Besides, on KRAS(G12D), the “Dmax 18 h” value turned out to be 89 % Ctrl. The half-maximal inhibitory concentration (IC50) with NCI-H358 cells was found to be 169 nM; with AsPC-1 cells it was 435 nM; in the assay on SAS cells it was 3380 nM; with SK—CO-1 cells, 124 nM; with LOVO cells, 278 nM.
`Cc1ncsc1-c1ccc([C@H](CO)NC(=O)[C@@H]2C[C@@H](O)CN2C(=O)C(C(C)C)n2cc(OCCCCN3C[C@H](C)N(c4nccc(-c5noc([C@@]6(C)CCCc7sc(N)c(C#N)c76)n5)n4)CCC3(C)C)nn2)cc1` (some centres unmarked) [I-32] gave a half-maximal degradation concentration (DC50) on KRAS(G12D) of 7.6 nM. Further, the “Dmax 18 h” value on KRAS(G12D) is recorded as 83 % Ctrl. The IC50 with AsPC-1 cells amounted to 8330 nM; in the assay on SAS cells, 9440 nM; with SK—CO-1 cells it was 507 nM; in the assay with LOVO cells it was 929 nM.
Regarding `COC(=O)[C@H](NC(=O)[C@@H]1C[C@@H](O)CN1C(=O)C(C(C)C)n1cc(OCCCCN2CCCN(c3nccc(-c4noc([C@@]5(C)CCCc6sc(N)c(C#N)c65)n4)n3)[C@@H](C)C2)nn1)c1ccc(-c2scnc2C)cc1` (some centres unmarked) [I-33], at KRAS(G12D), half-maximal degradation (DC50) was put at 13.1 nM. Also, the “Dmax 18 h” value on KRAS(G12D) amounted to 91 % Ctrl. Also, the IC50 in the assay on AsPC-1 cells is 323 nM; with SAS cells, 84.5 nM; in the assay with SK—CO-1 cells, 1950 nM; with LOVO cells it was 50 nM.

These data come from patent US20250145608A1, “KRAS DEGRADING COMPOUNDS COMPRISING ANNULATED 2-AMINO-3-CYANO THIOPHENES” (Boehringer Ingelheim Int'l GmbH Corp., priority 2021, published 2025).
